Several values for one entry are separate records, joined by “and”; a condition that tells them apart may be missing. Equal values may be shown once. Read-outs that look alike come from different tables or passages of the source.
Legend:
[1] = tested on: Diphyllobothrium erinacei; test: Test of anthelmintic effect against Diphyllobothrium erinacei (tapeworm) in experimentally infected cats (Test Examples A5, B5, C5, D5); conditions: for anthelmintic effect: 5 continuous administrations of 50 mg/Kg
[2] = tested on: swine Oesophagostomum (Oesophagostomum dentatum); test: Test of anthelmintic effect against swine Oesophagostomum in naturally infected pigs, E.P.G. on 7th day (Test Examples A8, B8, C8, D8); format: in vivo; conditions: for anthelmintic effect: one administration of 20 mg/Kg
Procedure: Six pigs infected with swine Oesophagostomum (naturally infected pigs) were employed by grouping them into groups each of two pigs.
As a control, only gelatin capsules were administered orally to the two pigs.
Before administration and on the 7th day after administration, fecal matter testing was conducted to calculate the E.P.G., and the anthelmintic effect was judged by the changing of the E.P.G. to negative.

[3] = tested on: fowl roundworm (As. galli); test: Anthelmintic test in chickens artificially infected with fowl roundworm, compound added to feed, E.P.G. and worm count up to 21st day (Test Examples A2, B2, C2, D2); format: in vivo, Ascaridia galli; conditions: for inhibition in vivo at 10 ppm: 10 ppm added to feed
[4] = tested on: Liver fluke; Fasciola hepatica (F. hepatica); test: Test of anthelmintic effect against rat infected experimentally with liver fluke (Test Examples A11, B11, C11, D11); format: in vivo; parameters: key to Presence or absence of fluke egg in fecal matter On 21st day after the last administration: +: indicates detection of fluke egg; -: indicates no detection; conditions: for anthelmintic effect: five administrations in a dose of 50 mg/Kg each
Text: Twenty-eight (28) rats were employed in fourteen groups each of two rats, each rat being infected with 5 metacercariae of Liver fluke; Fasciola he^patica (F.. hepatica) and confirmed to have worm eggs on the 75th day after infection according to fecal matter testing.
Judgement of the effect was made by the presence or absence of the worm gees in the fecal matter on the 21st day after the last administration and by examination according to autopsis as to whether the worm bodies were dead or alive in the liver.
The same as that in Test Example All, but eight (8) rats were employed by grouping them into groups each of two rats, each rat being infected with 5 metacercariae of liver fluke and confirmed to have fluke eggs on the 75th day after infection according to fecal matter testing.
The compounds provided for the tests were Compound Nos. Bl, B8 and B19.
The same as that in Test Example All, but six (6) rats were employed by grouping them into groups each of two rats, each rat being infected with 5 metacercariae of Fasciola hepatica and confirmed to have worm eggs on the 75th day after infection according to fecal matter testing.
The compounds provided for the tests were Compound Nos. C2 and C6.
The same as that in Test Example All, but the compounds provided for tests were Compound Nos. D14, D15 and D16.

[5] = tested on: canine filaria; Dirofilaria immitis; test: Test of anthelmintic effect against canine filaria in naturally infected dogs, subcutaneous injection, microfilaria in blood and adult filaria at autopsy (Test Examples A10, B10, C10, D10); format: in vivo
Procedure: Eight dogs infected with canine filaria; Diro- filaria immitis (naturally infected dogs) were employed in groups each of two dogs.
The compounds provided for tests were Compound Nos. Al, A3 and A12. 20 mg of each was administered by subcutaneous injection per Kg of body weight to each of the two dogs as a suspension in 1% "Tween 80" solution once per day for three days. As control, 3 ml of the 1% "Tween 80" solution was subcutaneously injected into two dogs once per day for three days.
Before administration and on the 10th day after administration, 20 µl of earlobe blood of each dog was sampled and examined to determine the change in microfilaria (mf) according to the concentrated smear color method, and judgement on the effect on microfilaria (mf) was made. Judgement relating to adult filaria was made on the 10th day after the last administration by killing the dogs and carrying out autopsis.
30 mg of each compound was administered by subcutaneous injection per Kg of body weight to each of the two dogs as a suspension in 1% "Tween 80" solution once per day for three days. As control, 3 ml of the 1% "Tween 80" solution was subcutaneously injected into two dogs once per day for three days.
30 mg of each compound was administered by subcutaneous injection per Kg of body weight to each of two dogs as a suspension in 1% "Tween 80" solution once per day for three days. As control, 3 ml of the 1% "Tween 80" solution was subcutaneously injected to two dogs once per day for three days.
20 mg of each compound was administered by subcutaneous injection per kg of body weight once per day for three days to each of two dogs. These compounds were administered as a suspension in 1% "Tween 80" in the case of Compound No.Dl3 and as solutions dissolved in distilled water for injection in the case of Compounds Nos. D10 and D16, respectively. As control, 3 ml of the 1% "Tween 80" solution was subcutaneously injected into two dogs once per day for three days.

[6] = tested on: fowl roundworm (Ascaridia galli); test: Anthelmintic test in chickens artificially infected with fowl roundworm, single oral dose in gelatin capsule, worm bodies counted within 48 hours (Test Examples A1, B1, C1, D1); format: in vivo; conditions: Ascaridia galli, po, 48 h, read-out: Anthelmintic effect after 48 hours; for inhibition in vivo at 15 mg/kg: 15 mg/Kg oral in gelatin capsule
Procedure: Chickens infected artificially with fowl roundworm (Ascaridia galli) were employed in groups each consisting of three chickens. Fecal matter testing was conducted before administration of medicine to confirm infection with the worm. The quantity of the compound provided for testing was 10 mg and 20 mg per Kg of body weight, which was orally administered each in a gelatin capsule to the chicken. The number of worm bodies discharged within 48 hours after administration of medicine was counted, the chicken was killed after 48 hours and the number of worm bodies remaining in the enteron was counted to determine the anthelmintic percentage, wherefrom the antihelmintic effect was judged.
The same as that in Test Example Al.
The same as that in Test Example Al except that the compound provided for testing was in quantities of 30 mg and 50 mg per Kg of body weight, which were orally administered to the chickens in gelatin capsules.
The same as that in Test Example Al, except that the compounds provided for testing were used in quantities of 15 mg and 30 mg per Kg of body weight, which were orally administered each in a gelatin capsule to the chicken.

[7] = pigs, 20 mg/Kg orally once, baseline, one value per pig, 20 mg/kg
[8] = pigs, 20 mg/Kg orally once, one value per pig
[9] = Ascaridia galli, po, 504 h, chickens, worm count on 21st day, one value per chicken, read-out: Anthelmintic effect
[10] = Ascaridia galli, po, 504 h, chickens, 50 ppm added to feed, worm count on 21st day, one value per chicken, read-out: Anthelmintic effect
[11] = rats, 50 mg/Kg x 5 orally, one value per rat
[12] = dogs, 20 mg/Kg x 3 subcutaneously, autopsy on 10th day after the last administration, one value per dog, 20 mg/kg
[13] = chicken, 30 mg/Kg oral in gelatin capsule, chickens No.1-3
[14] = chicken, 50 mg/Kg oral in gelatin capsule, chickens No.1-3
[15] = cat, 50 mg/Kg x 5, oral in gelatin capsule
[16] = cat, 50 mg/Kg x 5, oral in gelatin capsule, once per day for 5 days
[17] = pig, Oesophagostomum dentatum, 20 mg/Kg, one administration
[18] = pig, Oesophagostomum dentatum, before 20 mg/Kg (baseline)
[19] = Ascaridia galli, feed or water, 504 h, chicken, 25 ppm in feed, read-out: Anthelmintic effect
[20] = Ascaridia galli, feed or water, 504 h, chicken, 50 ppm in feed, read-out: Anthelmintic effect

C#CCN(OCC=C)C(=O)c1ccc(F)cc1 [Compound A12, N-propargyl-N-(p-fluorobenzoyl)-O-allylhydroxylamine]
Number of worm bodies remaining in enteron ([1]; cats infected with 5 plerocercoids, 50 mg/Kg x 5 times orally, autopsy ten days after administration, one value per cat): 0
Worm egg detection on 10th day after administration ([1]; cats, 50 mg/Kg x 5 times orally, one value per cat (Table A7)): -
anthelmintic effect ([1]; cats): marked anthelmintic effects
Change of E.P.G. Before administration [2, 7]: 2,100 E.P.G. and 1,500 E.P.G.
Change of E.P.G. 7th day [2, 8]: 0 E.P.G.
anthelmintic effect ([2]; pigs): marked anthelmintic effect
inhibition in vivo at 10 ppm [3, 9]: 80 to 90%
inhibition in vivo at 50 ppm [3, 10]: 100%
Condition of fluke body ([4]; rats, 50 mg/Kg x 5 orally, autopsy, liver, "Denatured" = fluke body is alive but a part of fluke body has changed, one value per rat): dead
Presence or absence of fluke egg in fecal matter On 21st day after the last administration [4, 11]: -
inhibition in vivo at 20 mg/kg ([5]; Dirofilaria immitis, sc, 240 h, dogs, administration of 20 mg/Kg repeated three times, given as about 50% or more, read-out: anthelmintic effect against adult filaria): ≥ 50%
Effect on adult filaria: Number of worms killed/Total parasites [5, 12]: 13/21 and 15/26
Effect on adult filaria: Percent of worms killed [5, 12]: 62% and 58%
Number of microfilaria/20 µl On 10th day after the last administration ([5]; dogs, 20 mg/Kg x 3 subcutaneously, earlobe blood, one value per dog): 0 /20 µl
anthelmintic effect against microfilaria (mf) ([5]; dogs, administration of 20 mg/Kg repeated three times): marked anthelmintic effect

C#CCN(C=O)OCC=C [Compound A13, N-propargyl-N-formyl-0-allylhydroxylamine]
inhibition in vivo at 10 mg/kg ([6]; chickens, 10 mg/Kg orally in gelatin capsule, one value per chicken (No.1-3)): 100%
inhibition in vivo at 20 mg/kg ([6]; chickens, 20 mg/Kg orally in gelatin capsule, one value per chicken (No.1-3)): 100%
inhibition in vivo at 10 ppm [3, 9]: 80 to 90%
inhibition in vivo at 50 ppm [3, 10]: 100%
Condition of fluke body ([4]; rats, 50 mg/Kg x 5 orally, autopsy, liver, "Denatured" = fluke body is alive but a part of fluke body has changed, one value per rat, 50 mg/kg): denatured and dead
Presence or absence of fluke egg in fecal matter On 21st day after the last administration [4, 11]: -

C=CCN(OCCCCC)C(C)=O [Compound B20]
inhibition in vivo at 30 mg/kg ([6]; chickens, 30 mg/Kg orally in gelatin capsule, one value per chicken (No.1-3)): 100%
inhibition in vivo at 50 mg/kg ([6]; chickens, 50 mg/Kg orally in gelatin capsule, one value per chicken (No.1-3)): 100%
Change of E.P.G. Before administration [2, 7]: 1,000 E.P.G. and 1,600 E.P.G.
Change of E.P.G. 7th day [2, 8]: 0 E.P.G.
anthelmintic effect ([2]; pigs): marked anthelmintic effect
inhibition in vivo at 20 ppm ([3]; Ascaridia galli, po, 504 h, chickens, 20 ppm added to feed, worm count on 21st day, one value per chicken, read-out: Anthelmintic effect): 100%
inhibition in vivo at 50 ppm [3, 10]: 100%

C=CCON(CC=C)C(=O)CC [Compound C2]
inhibition in vivo at 30 mg/kg [6, 13]: 100%
inhibition in vivo at 50 mg/kg [6, 14]: 100%
Number of worm bodies remaining in enteron [1, 15]: 0
Worm egg detection on 10th day after administration [1, 16]: -
anthelmintic effect ([1]; cats): marked anthelmintic effects
Change of E.P.G. 7th day [2, 17]: 0
Change of E.P.G. Before administration [2, 18]: 1,700 and 1,200
anthelmintic effect ([2]; pigs): marked anthelmintic effect
inhibition in vivo at 25 ppm [3, 19]: 100%
inhibition in vivo at 50 ppm [3, 20]: 100%
Change of E.P.G. 21st day ([3]; chicken, 25 ppm in feed): 0
Change of E.P.G. 21st day ([3]; chicken, 50 ppm in feed): 0
Condition of fluke body ([4]; rat, 50 mg/Kg x 5): dead
Presence or absence of fluke egg in fecal matter On 21st day after the last administration ([4]; rat, 50 mg/Kg x 5): -
anthelmintic effect ([4]; rats): marked antihelmintic effect
inhibition in vivo at 30 mg/kg ([5]; Dirofilaria immitis, sc, 240 h, dog, 30 mg/Kg x 3, subcutaneous injection, read-out: Effect on adult filaria: Percent of worms killed): 62%
inhibition in vivo at 30 mg/kg ([5]; Dirofilaria immitis, sc, 240 h, dogs, administration of 30 mg/Kg repeated three times, given as about 50% or more, read-out: anthelmintic effect against adult filaria): ≥ 50%
Number of microfilaria/20 µl On 10th day after the last administration ([5]; dog, 30 mg/Kg x 3, subcutaneous injection, suspension in 1% Tween 80): 0 /20 µl
Effect on adult filaria: Number of worms killed/ Total parasite ([5]; dog, 30 mg/Kg x 3, subcutaneous injection, 30 mg/kg): 5/8 and 8/13
anthelmintic effect against microfilaria (mf) ([5]; dogs, administration of 30 mg/Kg repeated three times): marked anthelmintic effect

C=CCON(CC=C)C(=O)c1ccc(F)cc1 [Compound C7]
inhibition in vivo at 30 mg/kg [6, 13]: 100%
inhibition in vivo at 50 mg/kg [6, 14]: 100%
Number of worm bodies remaining in enteron [1, 15]: 0
Worm egg detection on 10th day after administration [1, 16]: -
anthelmintic effect ([1]; cats): marked anthelmintic effects
inhibition in vivo at 25 ppm [3, 19]: 100%
inhibition in vivo at 50 ppm [3, 20]: 100%
Change of E.P.G. 21st day ([3]; chicken, 25 ppm in feed): 0
Change of E.P.G. 21st day ([3]; chicken, 50 ppm in feed): 0

C=CCNOCC(C)C [Compound D3]
inhibition in vivo at 30 mg/kg [6, 13]: 100%
Change of E.P.G. 7th day [2, 17]: 0
Change of E.P.G. Before administration [2, 18]: 2,200 and 1,800
anthelmintic effect ([2]; pigs): marked anthelmintic effect
inhibition in vivo at 25 ppm [3, 19]: 80 to 90%
inhibition in vivo at 50 ppm [3, 20]: 100%

C=CCNOC [Compound D9]
inhibition in vivo at 15 mg/kg ([6]; chicken, chickens No.1-3): 50 to 79%
inhibition in vivo at 30 mg/kg [6, 13]: 100%
Number of worms remaining in enteron ([1]; cat, 50 mg/Kg x 5): 0
anthelmintic effect ([1]; cats): marked anthelmintic effects

C#CCNOCCCC [Compound D12]
inhibition in vivo at 30 mg/kg [6, 13]: 100%
Change of E.P.G. 7th day [2, 17]: 0
Change of E.P.G. Before administration [2, 18]: 1,600 and 2,100
anthelmintic effect ([2]; pigs): marked anthelmintic effect

C#CCNOCC#C [Compound D15]
inhibition in vivo at 15 mg/kg ([6]; chicken, chickens No.1-3): 100%
inhibition in vivo at 30 mg/kg [6, 13]: 100%
inhibition in vivo at 25 ppm [3, 19]: 80 to 90%
inhibition in vivo at 50 ppm [3, 20]: 100%
Condition of fluke bodies ([4]; rat, 50 mg/Kg x 5): dead
Presence or absence of fluke egg in fecal matter On 21st day after the last administration ([4]; rat, 50 mg/Kg x 5): -
anthelmintic effect ([4]; rats): marked anthelmintic effect
